Experimental data as given in article PMC12040169 (PLOS Biology, 2025).

Assay: in vitro
Conditions: human, hela cells, % viability

Row | Compound | viability at 28.5 h, 10 µM [%]
1 | NNC(=O)C(Oc1ccccc1)Oc1ccccc1 [CBK261210] | 100
2 | CC(/C=C/c1ccccc1)=N\NC(=O)C(C)Oc1ccc(Br)cc1 (stereo not shown) [CBK261212] | 99.7
3 | NNC(=O)CCc1ccccc1O [CBK261214] | 97.2
4 | Ic1ccc2c3ccc(I)cc3c3[nH]c(-c4ccccc4)nc3c2c1 [CBK261218] | 92.9
5 | O=C(O)c1nc(/N=C/c2ccc(C#Cc3ccccc3)cc2)n[nH]1 [CBK261219] | 90.3
6 | O=C1C(c2ccccc2)=C(c2ccccc2)C(c2ccc(C3=C(c4ccccc4)C(=O)C(c4ccccc4)=C3c3ccccc3)cc2)=C1c1ccccc1 [CBK261220] | 87.4
7 | COc1ccc(/C=N/c2cc(S(=O)(=O)c3ccc(O)c(/N=C/c4ccc(OC)c(O)c4)c3)ccc2O)cc1O [CBK261223] | 92.3
8 | COc1cc(/C=N/c2cccc3c(/N=C/c4ccc(O)c(OC)c4)cccc23)ccc1O [CBK261224] | 85.8
9 | Cc1[nH]c2ccccc2c1/C=N/c1ccc(/N=C/c2c(C)[nH]c3ccccc23)cc1 [CBK261226] | 83.4
10 | Cc1[nH]c2ccccc2c1/C=N/c1cccc2c(/N=C/c3c(C)[nH]c4ccccc34)cccc12 [CBK261227] | 97.6
11 | CCn1c2ccccc2c2cc(/C=N/c3cc(S(=O)(=O)c4ccc(O)c(/N=C/c5ccc6c(c5)c5ccccc5n6CC)c4)ccc3O)ccc21 [CBK261229] | 76.5
12 | O=C(/C=C\c1cccs1)NC(=S)Nc1ccc([N+](=O)[O-])cc1O [CBK261231] | 89.4
13 | COc1ccc(OCC(=O)N/N=C\c2c(OC)ccc3ccccc23)c(Br)c1 [CBK261235] | 86.3
14 | Cc1cccc(NCC(=O)N/N=C/c2cc3ccccc3nc2Cl)c1 [CBK261236] | 90
15 | O=S1(=O)c2cc(/N=C/c3c(O)ccc4ccccc34)ccc2-c2ccc(/N=C/c3c(O)ccc4ccccc34)cc21 [CBK261240] | 84.7
16 | c1ccc2sc(CCCCc3nc4ccccc4s3)nc2c1 [CBK261248] | 92.5
17 | O=C(O)C1CCCN1S(=O)(=O)c1ccc(Cl)cc1 (stereo not shown) [CBK261249] | 88.1
18 | CC(=O)N/N=C(\C)c1ccc(-n2cnnn2)cc1 [CBK261252] | 95.9
19 | O=C(O)c1ccc(Sc2ccc(S(=O)(=O)c3ccc(C(=O)O)c(C(=O)O)c3)cc2)cc1 [CBK261253] | 106
20 | O=C(O)CSc1ccc(Oc2ccc(SCC(=O)O)cc2)cc1 [CBK261254] | 92.6
21 | O=C(CSc1cccc2c(SCC(=O)c3ccccc3)cccc12)c1ccccc1 [CBK261255] | 87.9

Row | Compound | viability at 28.5 h, 10 µM [%]
22 | O=C(CCS(=O)(=O)c1cc(Cl)ccc1Cl)OCC(=O)c1ccccc1 [CBK261256] | 90.1
23 | O=C(O)c1cccc(NS(=O)(=O)c2cccc(S(=O)(=O)c3ccc(Cl)c(Cl)c3)c2)c1 [CBK261259] | 102
24 | O=C1CC(N2CCN(c3ccccc3)CC2)C(=O)N1c1cccc2ccccc12 (stereo not shown) [CBK261263] | 92.8
25 | Cc1ccccc1-n1nc(-c2ccc(NC(=O)c3ccccc3)cc2)cc1NC(=O)c1ccccc1 [CBK261264] | 82.2
26 | Nc1cc(N)nc(SCc2ccccc2)n1 [CBK261266] | 96.1
27 | N#Cc1c(N)nc(SCC(=O)O)c(C#N)c1-c1ccc(O)cc1 [CBK261270] | 98
28 | O=C(O)c1cnc(-c2ccccc2)nc1 [CBK261272] | 93.2
29 | Brc1cnc(OCc2ccccc2)nc1OCc1ccccc1 [CBK261274] | 101
30 | Oc1ccccc1-c1cc(-c2ccccc2)c2c(ccc3ncccc32)n1 [CBK261276] | 91.9
31 | CN(C)Cc1ccccc1C(O)c1ccccc1 (stereo not shown) [CBK261277] | 94.4
32 | CCC(C)NC(=O)C(Cc1ccc([N+](=O)[O-])cc1)N1C(=O)c2ccccc2C1=O (stereo not shown) [CBK261278] | 105
33 | O=C(NCc1ccccc1)C(Cc1ccc([N+](=O)[O-])cc1)N1C(=O)c2ccccc2C1=O (stereo not shown) [CBK261279] | 95.9
34 | O=C(COc1ccccc1)N/N=C/c1ccc[nH]1 [CBK261281] | 104
35 | C(=N\c1ccc(Cc2ccc(/N=C/c3ccc[nH]3)cc2)cc1)/c1ccc[nH]1 [CBK261282] | 101
36 | CNCC(=O)N1c2ccccc2CCc2ccc(NC(=O)OC)cc21 [CBK261285C] | 96.5
37 | O=C1C2C(c3ccc(F)cc3)NC(c3ccc(F)cc3)C1C(c1ccc(F)cc1)NC2c1ccc(F)cc1 (stereo not shown) [CBK261288] | 110
38 | CCOC(=O)Nc1ccc2c(c1)N(C(=O)CCN1CCOCC1)c1ccccc1CC2 [CBK261291C] | 103
39 | O=C(CCc1ccccc1)NNC(=O)C1CC1c1ccccc1 (stereo not shown) [CBK261292] | 114
40 | CCOc1ccc(NC(NC(=O)Nc2ccccc2)C(Cl)(Cl)Cl)cc1 (stereo not shown) [CBK261294] | 99.8
41 | O=C(CCCCCN1C(=O)c2cccc3cccc(c23)C1=O)NO [CBK261295] | 55.6
42 | COc1ccc(C(=O)Nc2ccccc2Nc2cc(-c3ccccc3)nn2-c2ccccc2)cc1 [CBK261296] | 88.4

Row | Compound | viability at 28.5 h, 10 µM [%]
43 | O=C(Nc1ccccc1Nc1cc(-c2ccccc2)nn1-c1ccccc1)c1ccc(Br)cc1 [CBK261297] | 84.7
44 | Cc1ncc([N+](=O)[O-])n1CCOC(=O)NC(N1CCOCC1)C(Cl)(Cl)Cl (stereo not shown) [CBK261299] | 103
45 | COc1cc(OC)cc(C(=O)Nc2ccc(S(=O)(=O)Nc3nccs3)cc2)c1 [CBK261300] | 103
46 | COc1cc(/C=C2\SC(=S)N(CC(=O)NNC(=O)c3ccccc3O)C2=O)ccc1O [CBK261301] | 94
47 | O=C1NC2(CCCCC2)C(=O)N1CCS(=O)(=O)Oc1ccc(Br)cc1 [CBK261303] | 93.5
48 | O=C(O)CC/C(=N\NC(=O)c1cccnc1)c1ccccc1 [CBK261305] | 97.2
49 | Cc1ccc(S(=O)(=O)NC(CC(=O)O)c2ccccc2)cc1 (stereo not shown) [CBK261307] | 105
50 | CCOC(=O)c1c(CN(C)C)n(-c2ccccc2)c2cc(Br)c(O)cc12 [CBK261309C] | 83.4
51 | COc1ccc(OC)c(C(O)c2coc3ccc(O)c(CN(C)C)c23)c1 (stereo not shown) [CBK261314] | 114
52 | O=C(O)CCCNS(=O)(=O)c1ccc([N+](=O)[O-])cc1 [CBK261317] | 93.1
53 | NS(=O)(=O)c1ccc(Nc2c(C(=O)O)cc([N+](=O)[O-])cc2[N+](=O)[O-])cc1 [CBK261319] | 93
54 | O=C(CN1C(=O)c2ccccc2C1=O)Nc1cccc2cccnc12 [CBK261320] | 91.2
55 | COC(=O)c1ccc(NC(=O)c2c(Br)c(Br)c(Br)c(Br)c2C(=O)O)cc1 [CBK261321] | 100
56 | O=C(O)CCCC(=O)Nc1ccccc1Br [CBK261322] | 102
57 | COc1ccccc1NC(=O)CCCC(=O)O [CBK261323] | 101
58 | C(=N\Nc1nc(-c2ccccc2)cs1)/c1ccccc1 [CBK261327] | 101
59 | O=C(O)c1cc(C(=O)O)cc(N2C(=O)c3ccc(-c4ccc5c(c4)C(=O)N(c4cc(C(=O)O)cc(C(=O)O)c4)C5=O)cc3C2=O)c1 [CBK261331] | 96.6
60 | O=C(O)C1CC(C(=O)O)C(C(=O)O)CC1C(=O)O (stereo not shown) [CBK261332] | 89.4
61 | CC(=O)NCCC(CN1CCOCC1)([N+](=O)[O-])[N+](=O)[O-] [CBK261338] | 88.7
62 | O=C(Nc1ccc(Sc2ccc([N+](=O)[O-])cc2)cc1)c1ccc2c(c1)C(=O)N(c1ccccc1-c1ccccc1)C2=O [CBK261340] | 77.1
63 | CCC(=O)NC(Nc1cc(Cl)ccc1OC)(C(F)(F)F)C(F)(F)F [CBK261342] | 96.3

Row | Compound | viability at 28.5 h, 10 µM [%]
64 | CCOC(=O)NC(Nc1cccc(C)n1)(C(F)(F)F)C(F)(F)F [CBK261343] | 115
65 | O=C(Nc1ccccc1)c1ccc(-c2ccccc2)cc1 [CBK261346] | 107
66 | Cc1ccc(NC(=O)c2ccc(-c3ccccc3)cc2)c(OC(=O)c2ccc(-c3ccccc3)cc2)c1 [CBK261347] | 98.9
67 | COc1cc(C2N(Cc3ccccc3)CCN2Cc2ccccc2)ccc1OC(C)=O [CBK261349] | 89.2
68 | NS(=O)(=O)c1ccc(NC(=O)CCC(=O)O)cc1 [CBK261350] | 86.9
69 | Cc1[nH]c2ccccc2c1/C=N/c1ccc(S(N)(=O)=O)cc1 [CBK261352] | 96
70 | O=C(N/N=C/c1ccc(Br)s1)c1cccc([N+](=O)[O-])c1 [CBK261354] | 117
71 | O=C(O)c1ccc(C(=O)O)c2c(C(=O)O)cccc12 [CBK261356] | 82.3
72 | C=CCNC1OC(CO)C(O)C(O)C1O (stereo not shown) [CBK261357] | 88.9
73 | CC1(C)CC(CC(=O)NN)(c2ccccc2)CCO1 (stereo not shown) [CBK261358C] | 86.6
74 | CCOc1ccc(C2(C)C(=O)N(CN3CCOCC3)C(=O)N2CN2CCOCC2)cc1 (stereo not shown) [CBK261359] | 96
75 | CCOc1ccc(C(C)(CC(=O)O)C(=O)O)cc1 (stereo not shown) [CBK261361] | 102
76 | Cc1noc(COc2ccc(OCc3nc(C)no3)cc2)n1 [CBK261364] | 95.6
77 | O=C(Nc1cccc(OC(=O)c2cccc(S(=O)(=O)N3CCOCC3)c2)c1)c1ccccc1 [CBK261365] | 85.5
78 | O=C(Nc1cccc([N+](=O)[O-])c1)c1cc(S(=O)(=O)N2CCCCC2)ccc1Cl [CBK261367] | 93.9
79 | Cc1ccc(C(=O)Nc2cccc(OC(=O)c3cc(S(=O)(=O)N4CCCCC4)ccc3Cl)c2)cc1 [CBK261368] | 97.8
80 | CC(=O)Nc1ccc(S(=O)(=O)c2cc(O)ccc2O)cc1 [CBK261372] | 85.9
81 | COC(=O)c1ccc(CO)nc1 [CBK261376C] | 104
82 | O=C(CNC(=O)c1ccncc1)N/N=C/c1c(O)ccc2ccccc12 [CBK261378] | 77
83 | Nc1cc(NC(=O)c2cccc(C(=O)Nc3ccc(Cl)c(N)c3)c2)ccc1Cl [CBK261379] | 94.1
84 | OCCNc1nc(Cl)nc(Nc2nc(-c3ccccc3)cs2)n1 [CBK261381] | 86.2

Same assay, conditions: human, hela cells, % viability, bulk resorufin, single well

Row | Compound | viability at 28.5 h, 10 µM [%]
85 | Cc1cccc(OP(=O)(O)Oc2cccc(C)c2C)c1C [CBK261316] | 91.7
